{"source": "patent US9326506B2", "about": "“Preparation method, agricultural composition and applications of natural brassinolide analogs” (CHENGDU NEWSUN CROPSCIENCE CO., LTD, priority 2012, dated 2016)", "system": "soybean", "test": "Farmland test on soybean (germination, height, fresh weight, dry weight)", "assay_type": "in vivo", "conditions": "relative to the negative control (pure water)", "protocol": "BR1, BR2, BR3, BR4, BR5 and BR6 were mixed into a mixture of brassinolide analogues (referred to as “BRs”, in which the weight ratio of BR1:BR2:BR3:BR4:BR5:BR6 is 0.4:0.4:0.4:0.4:0.4:98). pure water was used as a negative control, while chemically synthesized homobrassinolide (purchased from Yunda Technology Co., Ltd.) was used as a positive control. Respectively BRs and the positive control were diluted to the concentrations of 1 ppm, 0.5 ppm, 0.1 ppm, 0.05 ppm, 0.01 ppm, 0.005 ppm, 0.001 ppm, 0.0005 ppm and 0.0001 ppm. The subjects for the experimentation are soybean seeds in an experimental farmland. We sowed the soybean seeds on 9th July, surveyed the germination on 22nd July, 23rd July and 24th July, and measured the height on 5th September […]."}
{"smiles": "CC[C@@H](C(C)C)[C@H](O)[C@@H](O)[C@@H](C)[C@H]1CC[C@H]2[C@@H]3COC(=O)[C@H]4C[C@H](O)[C@H](O)C[C@]4(C)[C@H]3CC[C@]12C", "note": "[homobrassinolide]", "values": [{"measurement": "Effects on germination, height, fresh weight and dry weight of soybean", "value": "positive and different effects"}]}
